This is an account of results in paper PMC5589937 (Scientific Reports, 2017).

Where a chain is given by its changes, count along the chain named. Read-outs that look alike come from different tables or passages of the source.

One data set deals with T1, hGIIE G6N (Homo sapiens, UniProt Q9NZK7, G25N).
T1 construct: The gene encoding for hGIIE protein without signal peptide was amplified by PCR; made in house; host or cells: Pichia pastoris X33 (vector pGAPZαA)
T1 sequence (Q9NZK7 20-142 G25N): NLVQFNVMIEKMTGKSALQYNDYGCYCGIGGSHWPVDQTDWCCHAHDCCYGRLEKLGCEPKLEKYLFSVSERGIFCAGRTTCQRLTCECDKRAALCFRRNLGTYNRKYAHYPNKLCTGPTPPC
Nature of the data set: Inhibition of hGIIE mutant G6N, sPLA2 assay kit. The format is biochemical. As to conditions: G6N enzyme 7.56 µM; mean ± s.d., n=2; read-out: IC50 against hGIIE G6N. How it is done: (§1) Enzymatic Kinetics of hGIIE assay was carried out using sPLA2 Assay kit (Cayman, Ann Arbor, MI, USA). Substrate of this assay is 1, 2-Diheptanoyl Thio-phosphatidylcholine (DTPC). After hydrolysis of the thio ester bond in the sn-2 position by phospholipase A2, free thiols are detected using 5, 5-dithio-bis-nitrobenzoic acid (DTNB). Activity assay was carried out on a 96-well plate at 25 °C. 10 µL DTNB, 10 µL protein sample and 5 µL buffer (25 mM Tris-HCl, pH 7.5, 10 mM CaCl2, 100 mM KCl, 0.3 mM Triton X-100) were pooled in the well, then the reaction was initiated by adding 200 µL substrate solution to the well simultaneously. Absorbance at 414 nm was measured every 1 min for 15 min. […] Protein concentration was adjusted to ensure the absorbance increase of 0.01 to 0.1 per minute. Curve was fitted to Michaelis-Menten equation and Lineweaver-Burk plot for the estimation of Km and Vmax using GraphPad Prism 5, Kcat was calculated by Vmax/enzyme concentration.
(§2) Inhibition of wild type (WT) and mutated hGIIE was analyzed using sPLA2 assay kit as mentioned above. In the assay system, 5 µL assay buffer was replaced by 5 µL of the inhibitor. Different concentrations of compound 8, 14, 24, Me-Indoxam, and LY311727 were prepared. The final concentration of enzyme used per well are as following: WT: 6.42 µM; F5L: 6.4 µM; F97L: 10.48 µM; F5L_F97L: 6.73 µM; G6H: 10.91 µM; G6N: 7.56 µM; N21G: 32.86 µM; N21M: 22.14 µM; N21W: 30 µM. Control reactions without enzyme or inhibitor were carried out. Percent inhibition of every well were calculated. Curve was fitted to the log (inhibitor)-response variable slope and IC50 was calculated using GraphPad Prism 5 (GraphPad).

A further data set addresses T2, hGIIE (Homo sapiens, UniProt Q9NZK7).
T2 construct: The gene encoding for hGIIE protein without signal peptide was amplified by PCR; made in house; host or cells: Pichia pastoris X33 (vector pGAPZαA)
T2 sequence (Q9NZK7 20-142): T1 sequence (Q9NZK7 20-142 G25N) with N6G
The conditions noted are these: cited from earlier work.

The target of another data set is T3, WT hGIIE (Homo sapiens, UniProt Q9NZK7).
T3 construct: The gene encoding for hGIIE protein without signal peptide was amplified by PCR; made in house; host or cells: Pichia pastoris X33 (vector pGAPZαA)
T3 sequence (Q9NZK7 20-142): T1 sequence (Q9NZK7 20-142 G25N) with N6G
The experiment in a line: Inhibition of wild type hGIIE, sPLA2 assay kit (DTPC substrate, DTNB detection). The format is biochemical. The conditions noted are these: WT enzyme 6.42 µM per well; mean ± s.d., n=2; read-out: IC50 against WT hGIIE. Here is the method: as §1, §2

For a further data set, the target named is T4, hGIIE N21G (Homo sapiens, UniProt Q9NZK7, N40G).
T4 construct: The gene encoding for hGIIE protein without signal peptide was amplified by PCR; made in house; host or cells: Pichia pastoris X33 (vector pGAPZαA)
T4 sequence (Q9NZK7 20-142 N40G): T1 sequence (Q9NZK7 20-142 G25N) with N6G, N21G
Nature of the data set: Inhibition of hGIIE mutant N21G, sPLA2 assay kit. The format is biochemical. The conditions noted are these: N21G enzyme 32.86 µM; mean ± s.d., n=2; read-out: IC50 against hGIIE N21G. Here is the method: as §1, §2

In a further data set the test system is hGV. As to conditions: cited from earlier work.
The target in a further data set is T5, hGIIE G6H (Homo sapiens, UniProt Q9NZK7, G25H).
T5 construct: The gene encoding for hGIIE protein without signal peptide was amplified by PCR; made in house; host or cells: Pichia pastoris X33 (vector pGAPZαA)
T5 sequence (Q9NZK7 20-142 G25H): T1 sequence (Q9NZK7 20-142 G25N) with N6H
The experiment in a line: Inhibition of hGIIE mutant G6H, sPLA2 assay kit. The format is biochemical. As to conditions: G6H enzyme 10.91 µM; mean ± s.d., n=2; read-out: IC50 against hGIIE G6H. Here is the method: as §1, §2

The target in another data set is T6, hGIIE F97L (Homo sapiens, UniProt Q9NZK7, F116L).
T6 construct: The gene encoding for hGIIE protein without signal peptide was amplified by PCR; made in house; host or cells: Pichia pastoris X33 (vector pGAPZαA)
T6 sequence (Q9NZK7 20-142 F116L): T1 sequence (Q9NZK7 20-142 G25N) with N6G, F97L
The experiment in a line: Inhibition of hGIIE mutant F97L, sPLA2 assay kit. The format is biochemical. As to conditions: F97L enzyme 10.48 µM; mean ± s.d., n=2; read-out: IC50 against hGIIE F97L. How it is done:
as §1, §2

The next data set has as its target T7, hGIIE F5L (Homo sapiens, UniProt Q9NZK7, F24L).
T7 construct: The gene encoding for hGIIE protein without signal peptide was amplified by PCR; made in house; host or cells: Pichia pastoris X33 (vector pGAPZαA)
T7 sequence (Q9NZK7 20-142 F24L): T1 sequence (Q9NZK7 20-142 G25N) with F5L, N6G
The experiment in a line: Inhibition of hGIIE mutant F5L, sPLA2 assay kit. The format is biochemical. The conditions noted are these: F5L enzyme 6.4 µM; mean ± s.d., n=2; read-out: IC50 against hGIIE F5L. How it is done:
as §1, §2

A further data set addresses T8, hGIIE N21W (Homo sapiens, UniProt Q9NZK7, N40W).
T8 construct: The gene encoding for hGIIE protein without signal peptide was amplified by PCR; made in house; host or cells: Pichia pastoris X33 (vector pGAPZαA)
T8 sequence (Q9NZK7 20-142 N40W): T1 sequence (Q9NZK7 20-142 G25N) with N6G, N21W
Nature of the data set: Inhibition of hGIIE mutant N21W, sPLA2 assay kit. The conditions noted are these: N21W enzyme 30 µM; mean ± s.d., n=2; read-out: IC50 against hGIIE N21W. The format is biochemical. How it is done: as §1, §2

Another data set concerns the target T9, hGIIE F5L_F97L (Homo sapiens, UniProt Q9NZK7, F116L/F24L).
T9 construct: The gene encoding for hGIIE protein without signal peptide was amplified by PCR; made in house; host or cells: Pichia pastoris X33 (vector pGAPZαA)
T9 sequence (Q9NZK7 20-142 F24L/F116L): T1 sequence (Q9NZK7 20-142 G25N) with F5L, N6G, F97L
Nature of the data set: Inhibition of hGIIE double mutant F5L_F97L, sPLA2 assay kit. The format is biochemical. The conditions noted are these: F5L_F97L enzyme 6.73 µM; mean ± s.d., n=2; read-out: IC50 against hGIIE F5L_F97L. Here is the method:
as §1, §2

The next data set has as its target T10, hGIIE N21M (Homo sapiens, UniProt Q9NZK7, N40M).
T10 construct: The gene encoding for hGIIE protein without signal peptide was amplified by PCR; made in house; host or cells: Pichia pastoris X33 (vector pGAPZαA)
T10 sequence (Q9NZK7 20-142 N40M): T1 sequence (Q9NZK7 20-142 G25N) with N6G, N21M
The experiment in a line: Inhibition of hGIIE mutant N21M, sPLA2 assay kit. The format is biochemical. The conditions noted are these: N21M enzyme 22.14 µM; mean ± s.d., n=2; read-out: IC50 against hGIIE N21M. Here is the method:
as §1, §2

Another data set relates to hGIID. Further details: method as in PMID 15028265. As to conditions: cited from earlier work.
A further data set relates to hGX. As to conditions: cited from earlier work.
The subject of the next data set is hGIB. Details: method as in PMID 16686528. The conditions noted are these: cited from earlier work.
Another data set relates to severe sepsis. Further details: method as in PMID 16096451. The conditions noted are these: trials terminated; experiment group; cited from earlier work.
A further data set concerns hGIIA. The conditions noted are these: measure not given; read-out: potency to hGIIA; cited from earlier work.
The next data set concerns rheumatoid arthritis. Further details: method as in PMID 15742431. The conditions noted are these: clinically tested; cited from earlier work.
A further data set deals with cardiovascular diseases. The conditions noted are these: treatment of cardiovascular diseases; cited from earlier work.
Substrate in data set [1]: CCCCCC(=O)OC[C@H](COP(=O)([O-])OCC[N+](C)(C)C)OC(=O)CCCCC
Nature of the data set: purified protein, by the assay type. The conditions noted are these: other: ITC, 25 °C, 2 µM hGIIE, pH 7.5, 10 mM CaCl2.

Consider `Cc1c(C(=O)C(N)=O)c2c(OCC(=O)O)cccc2n1Cc1cccc2ccccc12` [Compound 8], for which the IC50 on hGIIE G6N is 630 ± 50 nM; at hGIIE (read-out: IC50 hGIIE), under 25 nM; on WT hGIIE it was 280 ± 30 nM; on hGIIE N21G, 630 ± 20 nM; in the data set with hGV it was under 330 nM; on hGIIE G6H it was 3760 ± 860 nM. The IC50 on hGIIE F97L is 480 ± 30 nM; at hGIIE F5L it was 250 ± 60 nM; at hGIIE N21W, 1270 ± 220 nM; at hGIIE F5L_F97L, 250 ± 40 nM; at hGIIE N21M it was 1050 ± 20 nM.
Take `Cc1c(C(=O)C(N)=O)c2c(OCC(=O)O)cccc2n1Cc1cccc(Br)c1` [Compound 14]: the IC50 at hGIIE G6N is 230 ± 30 nM; on hGIIE (read-out: IC50 hGIIE) it was under 25 nM; at WT hGIIE it was 220 ± 20 nM; on hGIIE N21G it was 1730 ± 50 nM; in the data set with hGV, under 330 nM; at hGIIE G6H it was 880 ± 310 nM. In addition, the IC50 at hGIIE F97L worked out at 280 ± 70 nM; on hGIIE F5L, 130 ± 40 nM; at hGIIE N21W, 1940 ± 220 nM; on hGIIE F5L_F97L, 300 ± 20 nM; at hGIIE N21M it was 840 ± 30 nM.
For the molecule `Cc1c(C(=O)C(N)=O)c2c(OCC(=O)O)cccc2n1Cc1ccccc1C(F)(F)F` [Compound 24], in the data set on hGIID, the “decreased effect against hGIID in comparison to hGIIE” value is listed as “over 100 fold”. Moreover, the IC50 at hGIIE G6N was 270 ± 30 nM; on hGIIE (read-out: IC50 hGIIE), under 25 nM; at hGIIE N21G it was 2390 ± 400 nM; in the data set on hGV, under 330 nM; at hGIIE G6H it was 540 ± 30 nM; on hGIIE F97L it was 250 ± 20 nM. For the same molecule, the IC50 on hGIIE F5L was found to be 110 ± 10 nM; on hGIIE N21W it was 1870 ± 180 nM; on hGIIE F5L_F97L it was 140 ± 10 nM; at hGIIE N21M it was 830 ± 220 nM. The “decreased effect against hGX than hGIIE” value in the data set on hGX is “about 50 fold”.
As to `CCc1c(CC(N)=O)c2cc(OCCCP(=O)(O)O)ccc2n1Cc1ccccc1` [LY311727], the IC50 on hGIIE G6N was determined as 3070 ± 420 nM; at hGIIE N21G, 5130 ± 1070 nM; on hGIIE G6H, 14300 ± 390 nM; on hGIIE F97L, 1120 ± 20 nM; on hGIIE F5L, 1790 ± 140 nM; on hGIIE N21W, 18000 ± 1370 nM. Moreover, the IC50 was determined as 1000 ± 220 nM at hGIIE F5L_F97L and 5980 ± 400 nM at hGIIE N21M.
As to `CCc1c(C(=O)C(N)=O)c2c(OCC(=O)O)cccc2n1Cc1ccccc1` [LY315920, Varespladib], the IC50 was 750 nM in the data set with hGIB, 75 nM in the data set on hGX and 500 nM in the data set on hGV.
In the case of `CCc1c(C(=O)C(N)=O)c2c(OCC(=O)[O-])cccc2n1Cc1ccccc1.[Na+]` [LY315920: Na], the “outcome of clinical trials in severe sepsis” value with severe sepsis was “higher mortality rate”.
With `Cc1c(C(=O)C(N)=O)c2c(OCC(=O)O)cccc2n1Cc1ccccc1-c1ccccc1` [Me-Indoxam], the IC50 was 30 nM in the data set on hGIIA; 140 ± 20 nM at hGIIE G6N; 8 nM at hGIIE (measure not given, read-out: potency to hGIIE); 210 ± 10 nM at WT hGIIE; 1840 ± 30 nM on hGIIE N21G; 300 ± 20 nM on hGIIE G6H. The IC50 was 260 ± 20 nM on hGIIE F97L; 160 ± 10 nM at hGIIE F5L; 1440 ± 130 nM on hGIIE N21W; 240 ± 30 nM at hGIIE F5L_F97L; 880 ± 10 nM at hGIIE N21M.
In the case of `CCc1c(C(=O)C(N)=O)c2c(OCC(=O)OC)cccc2n1Cc1ccccc1` [Varespladib methyl], the “efficacy in treatment of rheumatoid arthritis” value in the data set on rheumatoid arthritis is given as “ineffective”. Moreover, the “adverse effects in phase three trials” value with cardiovascular diseases was “increased events of cardiovascular mortality, heart attack, and stroke”.

B1: hGIIE (Homo sapiens) (protein)
chain: T1 sequence (Q9NZK7 20-142 G25N) with N6G
A word on the Km: it is the concentration of substrate that gives half-maximal velocity. As a reminder, the kcat is the maximal rate divided by the concentration of active sites. With B1, in data set [1], the Km stood at 5.52 ± 1.00 mM and the kcat worked out at 3.22 ± 0.30 s⁻¹.
